Data reported in patent US12263171B2, “7-, 8-, and 10-substituted amino triazolo quinazoline derivatives as adenosine receptor antagonists, pharmaceutical compositions and their use” (Merck Sharp & Dohme LLC, priority 2018, dated 2025).

What was measured:
[1] = target: human A2a adenosine receptor (Homo sapiens (Human), UniProt P29274); assay: A2a receptor affinity radioligand binding assay ([3H] SCH58261, membranes from HEK293 or CHO cells); details: unstarred values: radioligand binding
Procedure, shortened: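 Displacement of tritiated SCH58261 (working dilution 4 nM) from recombinant human A2a receptor membranes (HEK293 or CHO), 60 min at room temperature in Tris pH 7.4/MgCl2 buffer after 15–30 min compound preincubation. Scintillation counting after filtration; normalized percent effect fitted 4-parameter logistic for IC50.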

[2] = target: T1, human A2b adenosine receptor (Homo sapiens (Human), UniProt P29275); assay: A2B antagonism in cAMP cell-based assay (LANCE cAMP, HEK293 cells, 600 nM adenosine); details: for IC50: values marked *: cAMP cell-based assay
Protocol: Measurement of A2A and A2B Antagonism in cAMP Cell-Based Assay
All subsequent liquid additions were performed using a multichannel pipettor. […] After this time 5 μL of either 300 nM or 600 nM adenosine (Sigma Cat. No. A9251) for A2A and A2B respectively was added and incubated for 30 minutes at 37° C. and 5% CO2 in a humidified environment. At this time detection mix was prepared by combining the LANCE Eu-W8044 labeled streptavidin and. Biotin-cAMP in detection buffer according to the manufacturers protocol. […] Curve fitting of the percent effect data versus the log of compound concentration used a 4-parameter concentration response curve fitting algorithm to calculate IC50 values.

[3] = target: T1, human A2b adenosine receptor; assay: A2b radioligand filtration binding assay (tritiated proprietary A2b antagonist, HEK293 membranes); details: unstarred values: radioligand binding
Procedure, shortened: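 Displacement of a tritiated proprietary A2b antagonist from membranes of HEK293 cells recombinantly expressing human A2b receptor, measured by filtration and scintillation counting. Percent effect was normalized to total and non-specific binding and fitted with a 4-parameter logistic to give IC50.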

T1 sequence (P29275 whole entry): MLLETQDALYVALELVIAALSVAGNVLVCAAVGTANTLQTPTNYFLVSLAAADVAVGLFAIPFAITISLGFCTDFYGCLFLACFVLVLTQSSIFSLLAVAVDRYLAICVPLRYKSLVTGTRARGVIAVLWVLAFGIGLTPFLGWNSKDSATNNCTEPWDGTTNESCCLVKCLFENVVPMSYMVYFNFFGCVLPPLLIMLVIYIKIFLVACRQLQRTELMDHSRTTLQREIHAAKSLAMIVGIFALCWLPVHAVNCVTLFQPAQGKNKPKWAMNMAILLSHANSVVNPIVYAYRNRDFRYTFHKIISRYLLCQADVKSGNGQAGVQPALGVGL
human A2a adenosine receptor, sequence (P29274 whole entry): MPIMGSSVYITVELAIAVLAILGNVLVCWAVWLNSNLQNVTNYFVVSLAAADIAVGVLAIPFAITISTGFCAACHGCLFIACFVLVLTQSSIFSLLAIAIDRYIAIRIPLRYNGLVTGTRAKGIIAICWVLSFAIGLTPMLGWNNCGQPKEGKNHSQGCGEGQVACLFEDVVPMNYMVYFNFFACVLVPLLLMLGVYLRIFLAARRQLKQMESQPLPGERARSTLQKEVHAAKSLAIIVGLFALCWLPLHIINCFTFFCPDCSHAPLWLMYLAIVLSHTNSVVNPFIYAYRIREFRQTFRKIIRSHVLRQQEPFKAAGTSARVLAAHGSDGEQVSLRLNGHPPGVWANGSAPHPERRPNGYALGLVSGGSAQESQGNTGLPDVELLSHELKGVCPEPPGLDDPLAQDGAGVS

| IC50 [1] [nM] | IC50 [2] [nM] | *A2B cAMP ^ % @ 10000 nM ([2]; @ 10000 nM, marked *, printed with ^ and without inh.) [% @ 10000 nM*] | IC50 [3] [nM] | SMILES |
| --- | --- | --- | --- | --- |
| 1.2 | 116 | – | – | Nc1nc2c(Cl)cccc2c2nc(C3CCCN(c4cnn(C5CC5)c4)C3)nn12 (racemic) [Example 133, rac-7-chloro-2-(1-(1-cyclopropyl-1H-pyrazol-4-yl)piperidin-3-yl)-[1,2,4]triazolo[1,5-c]pyquinazolin-5-amine] |
| 34 | 1680 | – | – | Cn1cc(N2CCCC(c3nc4c5cccc(F)c5nc(N)n4n3)C2)cn1 (single isomer, unassigned) [Example 131A, (R or S)-7-fluoro-2-(1-(1-methyl-1H-pyrazol-4-yl)piperidin-3-yl)-[1,2,4]triazolo[1,5-c]quinazolin-5-amine] |
| 9.3 | 121 | – | – | Cn1cc(N2CCCC(c3nc4c5cccc(F)c5nc(N)n4n3)C2)cn1 (single isomer, unassigned) [Example 131B, (S or R)-7-fluoro-2-(1-(1-methyl-1H-pyrazol-4-yl)piperidin-3-yl)-[1,2,4]triazolo[1,5-c]quinazolin-5-amine] |
| 18.6 | – | 31 | – | Cn1cc(N2CCCC(c3nc4c5cccc(Cl)c5nc(N)n4n3)C2)cn1 (single isomer, unassigned) [Example 132A] |
| 3.9 | 205 | – | – | Cn1cc(N2CCCC(c3nc4c5cccc(Cl)c5nc(N)n4n3)C2)cn1 (single isomer, unassigned) [Example 132B] |
| 2.8 | – | – | 125 | CCc1ccc2c(c1)nc(N)n1nc([C@@H]3CC[C@H](C)N(c4cnn(CC(C)(C)O)c4)C3)nc21 [Example 207, 1-(4-((2S,5R)-5-(5-amino-8-ethyl-[1,2,4]triazolo[1,5-c]quinazolin-2-yl)-2-methylpiperidin-1-yl)-1H-pyrazol-1-yl)-2-methylpropan-2-ol] |
| 28.7 | – | – | 328 | C[C@H]1CC[C@@H](c2nc3c4ccc(C5CCC5)cc4nc(N)n3n2)CN1c1cnn(CC(C)(C)O)c1 [Example 209, 1-(4-((2S,5R)-5-(5-amino-8-cyclobutyl-[1,2,4]triazolo[1,5-c]quinazolin-2-yl)-2-methylpiperidin-1-yl)-1H-pyrazol-1-yl)-2-methylpropan-2-ol] |
| 0.2 | – | – | 4.8 | COc1ccc2c(c1)nc(N)n1nc([C@@H]3CC[C@H](C)N(c4cnn(C5CCC[C@H]5O)c4)C3)nc21 (some centres unmarked) [Example 210A] |
| 0.5 | – | – | 3.4 | COc1ccc2c(c1)nc(N)n1nc([C@@H]3CC[C@H](C)N(c4cnn([C@@H](C)C(C)(C)O)c4)C3)nc21 [Example 211A, (S)-3-(4-((2S,5R)-5-(5-amino-8-methoxy-[1,2,4]triazolo[1,5-c]quinazolin-2-yl)-2-methylpiperidin-1-yl)-1H-pyrazol-1-yl)-2-methylbutan-2-ol] |
| 0.6 | – | – | 16.1 | COc1ccc2c(c1)nc(N)n1nc([C@@H]3CC[C@H](C)N(c4cnn([C@H](C)C(C)(C)O)c4)C3)nc21 [Example 211B, (R)-3-(4-((2S,5R)-5-(5-amino-8-methoxy-[1,2,4]triazolo[1,5-c]quinazolin-2-yl)-2-methylpiperidin-1-yl)-1H-pyrazol-1-yl)-2-methylbutan-2-ol] |
| 221 | – | – | 5480 | COc1ccc2c(c1)nc(N)n1nc([C@H]3CC[C@@H](C)N(c4cnn([C@@H](C)C(C)(C)O)c4)C3)nc21 [Example 212A] |
| 234 | – | – | 8280 | COc1ccc2c(c1)nc(N)n1nc([C@H]3CC[C@@H](C)N(c4cnn([C@H](C)C(C)(C)O)c4)C3)nc21 [Example 212B, (R)--3-(4-((2R,5S)-5-(5-amino-8-methoxy-[1,2,4]triazolo[1,5-c]quinazolin-2-yl)-2-methylpiperidin-1-yl)-1H-pyrazol-1-yl)-2-methylbutan-2-ol] |
| 4.6 | – | – | 207 | COc1ccc2c(c1)nc(N)n1nc(C3CCCCN(c4cnn(CC(C)(C)O)c4)C3)nc21 (centres unmarked) [Example 217, 1-(4-(3-(5-amino-8-methoxy-[1,2,4]triazolo[1,5-c]quinazolin-2-yl)azepan-1-yl)-1H-pyrazol-1-yl)-2-methylpropan-2-ol] |
